# Literature values in patent US20050064023A1, “Compound” (priority 2001, published 2005).
# Details: in combination with DOPE
Compound,enhancement compared to the non-disulfide analogs,cellular toxicity compared to DC-Chol liposomes,transfection efficiency compared to DC-Chol liposomes
"1,2-dioleyl-sn-glycero-3-succinyl-2-hydroxyethyl-disulfide omithine [DOGSDSO]",up to 50 times,–,–
"CC(C)CCC[C@@H](C)[C@H]1CC[C@H]2[C@@H]3CC=C4C[C@@H](OC(=O)CSSCC(=O)NCCN(CCN)CCN)CC[C@]4(C)[C@H]3CC[C@]12C [CHDTAEA, cholesteryl-hemi-dithio-diglycolyl-tris(aminoethyl)-amine]",–,decrease of cellular toxicity,increase of transfection efficiency
